The numbers were not newly measured in patent US20190021998A1, “TOPICAL NANOEMULSION THERAPY FOR WOUNDS” (THE REGENTS OF THE UNIVERSITY OF MICHIGAN, priority 2014, published 2019), which cites them from elsewhere.

The structures appear in SMILES notation.

For this series the following is noted: footnote *.

With `CCCCCCCCCCCCCCCCCC[N+](C)(C)CCCCCCCCCCCCCCCCCC` [DODAC, Dioctadecyl dimethyl ammonium chloride], the “CMC (mM), critical concentration for unilamellar vesicles” value is 10* mM.
